Counter-ions that a name gives are not always drawn.
Legend:
[1] = system: Fusarium culmorum; assay: Fusarium culmorum (foot rot of cereals) in vitro test, radial growth on Potato Dextrose Agar; format: cell-based; conditions: 168 h, 25° C., seven days, read-out: control compared to the untreated check (radial growth)
[2] = system: Botrytis cinerea; assay: Botrytis cinerea (gray mold) in vitro test, radial growth on Potato Dextrose Agar; format: cell-based; conditions: 168 h, compared to the untreated check, radial growth after seven days, read-out: control
[3] = system: Pyricularia oryzae; assay: microbe, parasite or virus in culture; format: cell-based; conditions: 168 h, read-out: control
[4] = system: Corynespora cassicola; assay: Corynespora cassicola (leaf spot of tomato) in vitro test, radial growth on Potato Dextrose Agar; format: cell-based; conditions: 168 h, compared to the untreated check, radial growth after seven days, read-out: control
[5] = system: Phakopsora pachyrhizi; assay: Phakopsora pachyrhizi test in soybean (greenhouse, preventive activity, disease severity rating); format: in vivo; conditions: preventive spray on soybean, compared to the untreated check
Outline: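 Greenhouse-raised young soybean plants sprayed with compound at stated rates, then inoculated one day later with 2.1×10^6 P. pachyrhizi spores and held at 25° C, 90% RH. Disease severity (0-100%) rated visually 3, 7, 10 and 15 days after application; % control calculated versus untreated plants.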

[6] = system: Colletotrichum capsici; assay: Colletotrichum capsici (anthracnose) in vitro test, radial growth on Potato Dextrose Agar; conditions: Colletotrichum truncatum, 168 h, read-out: control
Description: Compounds were dissolved in 0.3% DMSO and then added to Potato Dextrose Agar medium just prior to dispensing it into petri dishes. 5 mL medium with compound in the desired concentration was dispensed into 60 mm sterile petri-plates. After solidification, each plate was seeded with a 5 mm size mycelial disc taken form the periphery of an actively growing virulent culture plate. Plates were incubated in growth chambers at 25° C. temperature and 60% relative humidity for seven days and radial growth was measured.

[7] = system: Alternaria solani; assay: Alternaria solani (early blight of tomato/potato) in vitro test, radial growth on Potato Dextrose Agar; format: cell-based; conditions: 168 h, compared to the untreated check, radial growth after seven days, read-out: control
[8] = system: Rhizoctonia solani; assay: Rhizoctonia solani (rice sheath blight/potato black scurf) in vitro test, radial growth on Potato Dextrose Agar; format: cell-based; conditions: 168 h, compared to the untreated check, radial growth after seven days, read-out: control

CC(=O)N1CC[C@H](Oc2ccc(-c3noc(C(F)(F)F)n3)cc2)C1 [Compound 2, (S)-1-(3-(4-(5-(trifluoromethyl)-1,2,4-oxadiazol-3-yl)phenoxy)pyrrolidin-1-yl)ethan-1-one]
> 70%: inhibition of growth at 300 ppm [1] | inhibition of growth at 300 ppm [2] | inhibition of growth at 300 ppm [3] | inhibition of growth at 300 ppm [4] | pest or weed control at 500 ppm [5] | inhibition of growth at 300 ppm [6] | inhibition of growth at 300 ppm [7] | inhibition of growth at 300 ppm [8]

O=C(c1cccnc1)N1CC[C@H](Oc2ccc(-c3noc(C(F)(F)F)n3)cc2)C1 [Compound 12, (S)-pyridin-3-yl(3-(4-(5-(trifluoromethyl)-1,2,4-oxadiazol-3-yl)phenoxy)pyrrolidin-1-yl)methanone]
> 70%: inhibition of growth at 300 ppm [1] | inhibition of growth at 300 ppm [3] | pest or weed control at 500 ppm [5] | inhibition of growth at 300 ppm [6] | inhibition of growth at 300 ppm [7] | inhibition of growth at 300 ppm [8]

O=C(c1ccncc1)N1CC[C@H](Oc2ccc(-c3noc(C(F)(F)F)n3)cc2)C1 [Compound 13, (S)-pyridin-4-yl(3-(4-(5-(trifluoromethyl)-1,2,4-oxadiazol-3-yl)phenoxy)pyrrolidin-1-yl)methanone]
> 70%: inhibition of growth at 300 ppm [1] | inhibition of growth at 300 ppm [2] | inhibition of growth at 300 ppm [3] | pest or weed control at 500 ppm [5] | inhibition of growth at 300 ppm [6] | inhibition of growth at 300 ppm [7] | inhibition of growth at 300 ppm [8]

O=C(c1cccnc1)N1CC[C@H](Oc2ccc(-c3noc(C(F)(F)F)n3)cn2)C1 [Compound 48, (S)-pyridin-3-yl(3-((5-(5-(trifluoromethyl)-1,2,4-oxadiazol-3-yl)pyridin-2-yl)oxy)pyrrolidin-1-yl)methanone]
> 70%: inhibition of growth at 300 ppm [2] | inhibition of growth at 300 ppm [3] | pest or weed control at 500 ppm [5] | inhibition of growth at 300 ppm [7] | inhibition of growth at 300 ppm [8]

O=C(Cc1ccccn1)N1CC[C@H](Oc2ccc(-c3noc(C(F)(F)F)n3)cc2)C1 [Compound 55, (S)-2-(pyridin-2-yl)-1-(3-(4-(5-(trifluoromethyl)-1,2,4-oxadiazol-3-yl)phenoxy)pyrrolidin-1-yl)ethan-1-one]
> 70%: inhibition of growth at 300 ppm [1] | inhibition of growth at 300 ppm [2] | inhibition of growth at 300 ppm [3] | inhibition of growth at 300 ppm [4] | inhibition of growth at 300 ppm [6] | inhibition of growth at 300 ppm [8]

O=C(c1ccncc1)N1CC[C@H](Oc2ccc(-c3noc(C(F)(F)F)n3)cc2F)C1 [Compound 59, (S)-(3-(2-fluoro-4-(5-(trifluoromethyl)-1,2,4-oxadiazol-3-yl)phenoxy)pyrrolidin-1-yl)(pyridin-4-yl)methanone]
> 70%: inhibition of growth at 300 ppm [2] | inhibition of growth at 300 ppm [3] | pest or weed control at 500 ppm [5] | inhibition of growth at 300 ppm [6] | inhibition of growth at 300 ppm [7] | inhibition of growth at 300 ppm [8]

O=C(c1ccncc1)N1CC[C@H](Oc2ccc(-c3noc(C(F)(F)F)n3)c(F)c2)C1 [Compound 66, (S)-(3-(3-fluoro-4-(5-(trifluoromethyl)-1,2,4-oxadiazol-3-yl)phenoxy)pyrrolidin-1-yl)(pyridin-4-yl)methanone]
> 70%: inhibition of growth at 300 ppm [1] | inhibition of growth at 300 ppm [2] | inhibition of growth at 300 ppm [3] | inhibition of growth at 300 ppm [4] | inhibition of growth at 300 ppm [6] | inhibition of growth at 300 ppm [7] | inhibition of growth at 300 ppm [8]

CC(=O)N1CC[C@H](Oc2ccc(-c3noc(C(F)(F)F)n3)c(F)c2)C1 [Compound 68, (S)-1-(3-(3-fluoro-4-(5-(trifluoromethyl)-1,2,4-oxadiazol-3-yl)phenoxy)pyrrolidin-1-yl)ethan-1-one]
> 70%: inhibition of growth at 300 ppm [2] | inhibition of growth at 300 ppm [3] | inhibition of growth at 300 ppm [6] | inhibition of growth at 300 ppm [7] | inhibition of growth at 300 ppm [8]

CC(=O)N1CC[C@H](Oc2ccc(-c3noc(C(F)(F)F)n3)cc2F)C1 [Compound 69, (S)-1-(3-(2-fluoro-4-(5-(trifluoromethyl)-1,2,4-oxadiazol-3-yl)phenoxy)pyrrolidin-1-yl)ethan-1-one]
> 70%: inhibition of growth at 300 ppm [1] | inhibition of growth at 300 ppm [2] | inhibition of growth at 300 ppm [3] | inhibition of growth at 300 ppm [4] | inhibition of growth at 300 ppm [6] | inhibition of growth at 300 ppm [7] | inhibition of growth at 300 ppm [8]

FC(F)(F)c1nc(-c2ccc(OC3CCNCC3)cc2)no1 [Compound 85, 3-(4-(piperidin-4-yloxy)phenyl)-5-(trifluoromethyl)-1,2,4-oxadiazole Hydrochloride]
> 70%: inhibition of growth at 300 ppm [3] | inhibition of growth at 300 ppm [4] | pest or weed control at 500 ppm [5] | inhibition of growth at 300 ppm [7] | inhibition of growth at 300 ppm [8]

CC(=O)N1CC(N(C)c2ccc(-c3noc(C(F)(F)F)n3)cc2)C1 [Compound 89, 1-(3-(methyl(4-(5-(trifluoromethyl)-1,2,4-oxadiazol-3-yl)phenyl)amino)azetidin-1-yl)ethan-1-one]
> 70%: inhibition of growth at 300 ppm [1] | inhibition of growth at 300 ppm [2] | inhibition of growth at 300 ppm [3] | inhibition of growth at 300 ppm [4] | inhibition of growth at 300 ppm [6] | inhibition of growth at 300 ppm [7] | inhibition of growth at 300 ppm [8]

CC(=O)N1CCC(Oc2ccc(-c3noc(C(F)(F)F)n3)cc2)CC1 [Compound 95, 1-(4-(4-(5-(trifluoromethyl)-1,2,4-oxadiazol-3-yl)phenoxy)piperidin-1-yl)ethan-1-one]
> 70%: inhibition of growth at 300 ppm [1] | inhibition of growth at 300 ppm [2] | inhibition of growth at 300 ppm [3] | inhibition of growth at 300 ppm [4] | inhibition of growth at 300 ppm [6] | inhibition of growth at 300 ppm [7] | inhibition of growth at 300 ppm [8]

CCC(=O)N1CC(N(C)c2ccc(-c3noc(C(F)(F)F)n3)cc2)C1 [Compound 100, 1-(3-(methyl(4-(5-(trifluoromethyl)-1,2,4-oxadiazol-3-yl)phenyl)amino)azetidin-1-yl)propan-1-one]
> 70%: inhibition of growth at 300 ppm [1] | inhibition of growth at 300 ppm [2] | inhibition of growth at 300 ppm [3] | inhibition of growth at 300 ppm [4] | pest or weed control at 500 ppm [5] | inhibition of growth at 300 ppm [6] | inhibition of growth at 300 ppm [7] | inhibition of growth at 300 ppm [8]

FC(F)(F)c1nc(-c2ccc(O[C@H]3CCN(Cc4ccccc4)C3)cc2)no1 [Compound 137, (S)-3-(4-((1-benzylpyrrolidin-3-yl)oxy)phenyl)-5-(trifluoromethyl)-1,2,4-oxadiazole]
> 70%: inhibition of growth at 300 ppm [3] | inhibition of growth at 300 ppm [4] | inhibition of growth at 300 ppm [7] | inhibition of growth at 300 ppm [8]

FC(F)(F)c1nc(-c2ccc(S[C@@H]3CCNC3)cc2)no1 [Compound 158, (R)-3-(4-(pyrrolidin-3-ylthio)phenyl)-5-(trifluoromethyl)-1,2,4-oxadiazole Hydrochloride]
> 70%: inhibition of growth at 300 ppm [4] | inhibition of growth at 300 ppm [7]

Cc1ccc(CN2CC[C@H](Oc3ccc(-c4noc(C(F)(F)F)n4)cc3)C2)cc1 [Compound 163, (S)-3-(4-((1-(4-methylbenzyl)pyrrolidin-3-yl)oxy)phenyl)-5-(trifluoromethyl)-1,2,4-oxadiazole]
> 70%: inhibition of growth at 300 ppm [2] | inhibition of growth at 300 ppm [3] | inhibition of growth at 300 ppm [4] | inhibition of growth at 300 ppm [7] | inhibition of growth at 300 ppm [8]

CC(=O)N1CC[C@@H](Sc2ccc(-c3noc(C(F)(F)F)n3)cc2)C1 [Compound 165, (R)-1-(3-((4-(5-(trifluoromethyl)-1,2,4-oxadiazol-3-yl)phenyl)thio)pyrrolidin-1-yl)ethan-1-one]
> 70%: inhibition of growth at 300 ppm [2] | inhibition of growth at 300 ppm [3] | inhibition of growth at 300 ppm [4] | inhibition of growth at 300 ppm [6] | inhibition of growth at 300 ppm [7] | inhibition of growth at 300 ppm [8]

FC(F)(F)c1nc(-c2ccc(O[C@H]3CCN(Cc4ccc(Cl)cc4)C3)cc2)no1 [Compound 180, (S)-3-(4-((1-(4-chlorobenzyl)pyrrolidin-3-yl)oxy)phenyl)-5-(trifluoromethyl)-1,2,4-oxadiazole]
> 70%: inhibition of growth at 300 ppm [2] | inhibition of growth at 300 ppm [3] | inhibition of growth at 300 ppm [4] | inhibition of growth at 300 ppm [6] | inhibition of growth at 300 ppm [7]

O=C(c1cocn1)N1CC[C@H](Oc2ccc(-c3noc(C(F)(F)F)n3)cn2)C1 [Compound 199, (S)-oxazol-4-yl(3-((5-(5-(trifluoromethyl)-1,2,4-oxadiazol-3-yl)pyridin-2-yl)oxy)pyrrolidin-1-yl)methanone]
> 70%: inhibition of growth at 300 ppm [1] | inhibition of growth at 300 ppm [3] | inhibition of growth at 300 ppm [6] | inhibition of growth at 300 ppm [7]
